US20230034660A1, “PEPTIDES THAT ENHANCE NMDA RECEPTOR FUNCTION AND USE THEREOF” (University of Pittsburgh - Of the Commonwealth System of …, priority 2019, published 2023)

Experiments:
NMDAR [1] = test: NMDAR EPSCs in DCN cartwheel cells in brain slices, ZX1 potentiation; type: cell-based, mice; details: ZX1 100 μM; for ZX1 potentiation of NMDAR-mediated synaptic currents, 20 Hz: slices treated with peptide 3 μM at least 1 hour, parallel fibers stimulated at 20 Hz, +40 mV
[2] = system: presynaptic release of glutamate; test: Paired pulse ratio and coefficient of variance of AMPAR responses (release probability); type: cell-based, mice; details: peptide-treated slices; for paired pulse ratio (PPR): AMPAR EPSCs, 50 millisecond interval; for coefficient of variance (CV): AMPAR responses
Experimental: For brain slice recordings, whole-cell recordings of NMDAR EPSCs in slice DCN cartwheel cells were obtained with micropipettes (3-6 MΩ) containing 128 mM Cs(CH3O3S), 4 mM MgCl2·6H2O, 4 mM Na2ATP, 10 mM HEPES, 0.3 mM Tris-GTP, 10 mM Tris-phosphocreatine, 1 mM CsEGTA, 1 mM, QX-314, 3 mM sodium ascorbate, pH=˜7.2, 300 mOsm. Cartwheel cells were identified by the presence of complex spikes (Zhang and Oertel, 1993; Golding and Oertel, 1997; Tzounopoulos et al., 2004) in cell-attached configuration before break-in or in response to current injections in current-clamp mode after break-in. NMDAR EPSCs were recorded in voltage clamp mode, at a holding potential of +40 mV, in the presence of DNQX (20 μM, AMPA and kainate receptor antagonist), SR95531. (20 μM, GABAAR antagonist), and strychnine (1 μM, GlyR antagonist), ZX1 (100 μM) was included in the pipette in experiments where noted. Whole-cell recordings of AMPAR EPSCs were obtained with micropipettes containing […], 4.5 mM MgCl2·6 H2O, 14 mM Tris-phosphocreatine, 9 mM HEPES, 0.1 mM EGTA, 4 mM Na2ATP, 0.3 mM Tris-GTP, 10 mM sucrose, pH=7.3, 295 mOsm. AMPA EPSCs were recorded in voltage clamp mode at a holding potential of −70 mV in the presence of SR9551. (20 μM, GABAAR antagonist) and strychnine (1 μM, GlyR antagonist). Both NMDAR and […] EPSCs were evoked using an Isoflex stimulator (A.M.P.I. 0.1 ms pulses) stimulating parallel fibers with voltage pulses through a theta glass electrode. Stimulus intensity was adjusted to a level that consistently evoked stable responses. For paired pulse experiments, inter-stimulus interval was 50 milliseconds. Once a stable response was established, ZX1 (100 μM) was added to the recording solution to measure the effect of zinc chelation on EPSCs. The series resistance was not compensated because the currents measured were relatively small, therefore there was minimum voltage clamp error. The series resistance was monitored during the recording by delivering −5 mV voltage steps for 50 milliseconds for each sweep. The peak current value (ΔIpeak) generated immediately after the step in the command potential was used to calculate series resistance (Rseries) using the following formula: Rseries=−5 mv/ΔIpeak. […] All values reported are animal-based values, in cases where multiple cells were recorded from the same animal preparation, the average of cells is presented (Lazic et al., 2018). […]
Next, it was evaluated whether a change in presynaptic release of glutamate could contribute to the observed actions of N2AZ on NMDAR-mediated synaptic currents. […] To measure PPR, two stimuli were given in rapid succession and the ratio of the second EPSC to the first was calculated. […]

NMDAR [3] = test: NMDAR Lev-EPSCs in auditory cortex L2/3 principal neurons, ZX1 effect; type: cell-based, ICR mice; details: auditory cortex slices incubated with peptide or scramble; 100 μM ZX1; +40 mV
Description: (FIG. 11A) Left: schematic illustration of stereotaxic injections in ICR mice, of retrograde microspheres of different colors to label corticocallosal (CCal) and corticollicular (CCol) neurons. CCol neurons were used to identify AC, and viral vector (AAV) for expression of channel rhodopsin (ChR2) in AC L2/3 PNs. Right: schematic illustrating slice electrophysiology experiment involving photostimulation of ChR2 expressing AC L2/3 PNs while recording from adjacent L2/3 PNs. (FIG. 11B) Top: representative traces of L2/3 PN NMDAR Lev-EPSCs (at +40 mV) evoked by a 0.15-ms duration pulse photostimulation of adjacent PNs in control and after 100 μM ZX1, in slices incubated with scramble. Bottom: same as the top panel in slices incubated with the peptide. (FIG. 11C) Time course of the average amplitude of NMDAR Lev-EPSCs before and after ZX1 in slices incubated with scramble and peptide. During the entire experiment application of DNQX and SR 95531 blocked AMPARs and GABAARs, correspondingly. (FIG. 11D) Average effect of ZX1 on L2/3 PN NMDAR Lev-EPSCs amplitudes normalized to control. Peptide ZX1 effect=99.02±3.8%, P=0.521, paired 1-tests, n=3 cells from two mice: Scramble ZX1 effect=159.4±15.8%, P=0.068, paired t-tests, n=4 cells from three mice. The difference is statistically significant at P=0.034, Unpaired t-test. Asterisk denotes a statistically significant difference at P<0.05. […]

| Sequence | ZX1 potentiation of NMDAR-mediated synaptic currents, 20 Hz (NMDAR [1]) [%] | paired pulse ratio (PPR) [2] | coefficient of variance (CV) [2] | ZX1 effect on L2/3 PN NMDAR Lev-EPSCs amplitudes normalized to control (NMDAR [3]) [%] | ZX1 potentiation of NMDAR-mediated synaptic currents, WT littermates (NMDAR [1]; N2AZ-treated slices (3 μM) from WT littermate controls, 20 Hz) [%] | ZX1 potentiation of NMDAR-mediated synaptic currents, ZnT3 KO (NMDAR [1]; N2AZ-treated slices (3 μM) from ZnT3 null mice, 20 Hz) [%] | ZX1 potentiation of NMDAR EPSCs, 100 Hz (NMDAR [1]; slices treated with peptide 3 μM, 100 Hz stimulation frequency) [%] |
| --- | --- | --- | --- | --- | --- | --- | --- |
| SNLSDSYDR [scN2AZ, reference compound] | 47.30±10.14 | 2.18±0.26 | 0.28±0.030 | 159.4±15.8 | – | – | – |
| NDSYLRSSL [Peptide N2AZ] | 19.39±5.82 | 2.29±0.07 | 0.26±0.031 | 99.02±3.8 | 5.60±4.38 | 11.9±6.90 | 1.95±4.33 |
